# “Also recorded” adds a separate entry of the source.
# Columns and labels:
# [1] = Ussing chamber: human colon tissue penetration and permeability of 5-ALA with SFC, metabolite formation; type: in vitro ADME
# Experimental: (§1) The chambers are made of solid acrylic and supports the tissue membrane in such a way that each side of the membrane is isolated and faces a different chamber representing the luminal (apical) and blood (basal) compartments. The working system consists of a unit to fit a maximum of six vertical chambers, a gas manifold for carbogen purging (95% O2, 5% CO2) and a heater block to maintain the temperature of the chambers at 37° C. during the experiments with the use of a circulating water bath. The chambers are two-piece assemblies held together by a high spring-tension retaining ring to ensure leak-free operation during the experiments.
# (§2) The EVOM™ voltohmmeter (World Precision Instruments, Inc., Hertfordshire, UK) and Ag/AgCl electrodes (Harvard Apparatus, Cambridge, UK) were used to measure the trans-epithelial electrical resistance (TEER) of the tissue samples. TEER monitors the presence of functional tight junctions, which are responsible for the barrier function and which limit Paracellular permeation of water and solutes. […]
# (§3) For the tissue penetration studies, the freshly excised colon of human subject or C57BL6 mice was collected and transferred to an ice-cold solution of Krebs-Bicarbonate Ringer solution (KBr) of pH 7.4. […] The TEER was continuously monitored during the experiment to confirm the viability and integrity of the tissue.
# [2] = Human colon model (faecal slurry): stability of 5-ALA with SFC and formation of PpIX; type: in vitro ADME
# Experimental: (§4) A human colonic model based on a mixed fecal inoculum was used to mimic the luminal environment of the human large intestine. An anaerobic workstation (Electrotek 500TG™ workstation, Electrotek, West Yorkshire, UK) maintained at 37° C. and 70% relative air humidity was used to set up the model. The fecal material was transferred in the anaerobic workstation and diluted with freshly prepared basal medium to obtain 20% w/w slurry by homogenization. The basal media provides nutrients and growth factors to the microbiota allowing viability for up to 24 hours. The homogenized bacterial media was sieved through an open mesh fabric (SefarNitex™, pore size 350 μm) to remove any nonhomogeneous fibrous material. […]
# (§5) For 5-ALA analysis, a 150×4.6-mm Jupiter 5 μm 300 Å (Phenomenex, Torrance, CA) C18 column was used using 70% water (0.1% TFA) and 30% acetonitrile (0.1% TFA) as the mobile phase for elution, at a flow rate of 1 ml/min. The analysis was operated at room temperature and fluorescence detection wavelength was set at 395/480 nm excitation/emission. […]
# (§6) For PpIX analysis, a 150×4.6-mm Aeris 3.6 μm 100 Å (Phenomenex, Torrance, CA) C18 column was used using 70% acetonitrile and 30% 10 mM TBA solution (pH 7.5) as the mobile phase at a flow rate of 1 ml/min. The analysis was operated at room temperature and fluorescence detection wavelength was set at 400/630 nm excitation/emission. […]
# [3] = Ussing chamber: mouse colon tissue penetration and permeability of 5-ALA with SFC, metabolite formation; type: in vitro ADME, C57BL6 mice; conditions: mouse colon vs human colon, 3 hours
# Experimental: as §1, §2, §3
# [4] = tested on: DSS induced colitis mouse model
# [5] = Mouse colon model (faecal slurry): stability of 5-ALA with SFC and formation of PpIX; type: in vitro ADME, C57BL6 mice
# Experimental: as §4, with “mouse” for “human”, “model. Three healthy male C57BL6 mice were sacrificed and the fecal contents were collected.” for “model.”, “upto” for “up to”, “hours.” for “hours. The homogenized bacterial media was sieved through an open mesh fabric (SefarNitex™, pore size 350 μm) to remove any nonhomogeneous fibrous material.”
# as §5, §6
# [6] = intra-colonic vs oral, 10 and 100 mg/kg, day 10
# [7] = oral vs intra-colonic dosing, day 10
compound,measurement,setting,value
"NCC(=O)CCC(=O)O [5-ALA, 5-aminolevulinic acid]",Tissue conc. of 5-ALA,"[1]; human colon vs mouse colon, Ussing chamber, 3 hours",higher in human colon compared to mouse colon
same,Penetration of 5-ALA into colon tissue,[1]; human colonic tissue in vitro,readily able to penetrate effectively into colon tissue
same,Stability of 5-ALA in human colon fluid,"[2]; 6 mg/ml 5-ALA + 1 mg/ml SFC, 10% w/w human faecal slurry, up to 24 hrs",completely stable; also recorded: very stable
same,Conversion of 5-ALA into PpIX in human colon fluid,[2]; in the presence of SFC,no conversion; also recorded: no metabolism
same,Permeability of 5-ALA across the tissue,[3],higher
same,Reduction of expression of IL-1β in the colon tissue and plasma,[4]; [6],significantly better than after oral administration
same,Reduction of expression of IL-6 in the colon tissue and plasma,[4]; [6],significantly better than after oral administration
same,Reduction of expression of TNF-α in the colon tissue and plasma,[4]; [6],significantly better than after oral administration
same,Expression of HO-1 in the colon tissue and plasma,[4]; oral vs intra-colonic dosing,no significant difference
same,Expression of 5-ALA metabolite PpIX in the plasma,"[4]; oral vs intra-colonic dosing, 10 and 100 mg/kg","Significantly enhanced expression of PpIX was observed in the plasma after oral dosing, but not intra-colonic dosing"
same,Bilirubin expression in the colon tissue and plasma,[4]; [7],no significant difference
same,Biliverdin expression in the colon tissue and plasma,[4]; [7],no significant difference
same,Reduction in inflammatory cytokines compared with 5-ASA,[4]; vs 5-ASA 50 mg/kg oral and intra-colonic,superior to 5-ASA given both orally and intra-colonic
same,Stability of 5-ALA in mouse colon fluid,"[5]; 6 mg/ml 5-ALA + 1 mg/ml SFC, 10% w/w mouse faecal slurry, up to 24 hrs",completely stable
same,Conversion of 5-ALA into PpIX in mouse colon fluid,[5]; in the presence of SFC,no conversion
